In US20240383900A1, “SUBSTITUTED PYRAZOLO [1,5-A]PYRIMIDINE-7-AMINE COMPOUNDS AS CDK INHIBITORS AND THEIR THERAPEUTIC USE” (Carrick Therapeutics Limited, priority 2021, published 2024):
Like-named read-outs stand apart in the source and are kept apart here.

Columns and labels:
A673 cells = test: Cytotoxicity in A673 cells (Cell Titer Glo viability); type: cell-based; details: for Ratio of Biochemical Potency:Cellular Potency: CDK12 IC50 / A673 IC50; for IC50: Homo sapiens
Method: Cells were plated in 96-well plates at a density of […] viable cells per well in 200 μL fully supplemented growth medium (DMEM+10% heat inactivated foetal bovine serum) and incubated for 24 hours in standard tissue culture conditions. Compounds, including MLN4924, were solubilised in DMSO and then diluted in fully supplemented growth medium at 2× their final assay concentration such that the final DMSO concentration was 0.1%. Growth medium in the assay plates was replaced with 50 μL of growth medium containing 2×MLN4924 (final assay concentration: 30 nM, where tested) or vehicle only and 50 μL of growth medium containing a 2× compound concentration series or vehicle only such that each compound was at 1× final assay concentration in 100 μL.
Cells were then incubated for 72 hours in standard tissue culture conditions before viability was assessed using 50 μL Cell Titer Glo reagent (Promega) per well and luminescence measured on an EnVision plate reader. Data were normalised to vehicle control (100%) and cells treated with 0.1% Triton x-100 for 1 hour before viability measurement (0%; full cell kill). […] Viability curves generated in the presence of MLN4924 were normalised and fixed to controls treated with MLN4924.

Human CDK12 wt/CycK = Human CDK12 wt/CycK (Homo sapiens (Human), UniProt Q9NYV4); test: Radiometric protein kinase assay (33PanQinase Activity Assay), CDK12; type: biochemical; details: for CDK7/CDK12: ratio of CDK7 IC50 to CDK12 IC50, greater than 1 indicates selectivity for CDK12
Chain of Human CDK12 wt/CycK (Q9NYV4 whole entry): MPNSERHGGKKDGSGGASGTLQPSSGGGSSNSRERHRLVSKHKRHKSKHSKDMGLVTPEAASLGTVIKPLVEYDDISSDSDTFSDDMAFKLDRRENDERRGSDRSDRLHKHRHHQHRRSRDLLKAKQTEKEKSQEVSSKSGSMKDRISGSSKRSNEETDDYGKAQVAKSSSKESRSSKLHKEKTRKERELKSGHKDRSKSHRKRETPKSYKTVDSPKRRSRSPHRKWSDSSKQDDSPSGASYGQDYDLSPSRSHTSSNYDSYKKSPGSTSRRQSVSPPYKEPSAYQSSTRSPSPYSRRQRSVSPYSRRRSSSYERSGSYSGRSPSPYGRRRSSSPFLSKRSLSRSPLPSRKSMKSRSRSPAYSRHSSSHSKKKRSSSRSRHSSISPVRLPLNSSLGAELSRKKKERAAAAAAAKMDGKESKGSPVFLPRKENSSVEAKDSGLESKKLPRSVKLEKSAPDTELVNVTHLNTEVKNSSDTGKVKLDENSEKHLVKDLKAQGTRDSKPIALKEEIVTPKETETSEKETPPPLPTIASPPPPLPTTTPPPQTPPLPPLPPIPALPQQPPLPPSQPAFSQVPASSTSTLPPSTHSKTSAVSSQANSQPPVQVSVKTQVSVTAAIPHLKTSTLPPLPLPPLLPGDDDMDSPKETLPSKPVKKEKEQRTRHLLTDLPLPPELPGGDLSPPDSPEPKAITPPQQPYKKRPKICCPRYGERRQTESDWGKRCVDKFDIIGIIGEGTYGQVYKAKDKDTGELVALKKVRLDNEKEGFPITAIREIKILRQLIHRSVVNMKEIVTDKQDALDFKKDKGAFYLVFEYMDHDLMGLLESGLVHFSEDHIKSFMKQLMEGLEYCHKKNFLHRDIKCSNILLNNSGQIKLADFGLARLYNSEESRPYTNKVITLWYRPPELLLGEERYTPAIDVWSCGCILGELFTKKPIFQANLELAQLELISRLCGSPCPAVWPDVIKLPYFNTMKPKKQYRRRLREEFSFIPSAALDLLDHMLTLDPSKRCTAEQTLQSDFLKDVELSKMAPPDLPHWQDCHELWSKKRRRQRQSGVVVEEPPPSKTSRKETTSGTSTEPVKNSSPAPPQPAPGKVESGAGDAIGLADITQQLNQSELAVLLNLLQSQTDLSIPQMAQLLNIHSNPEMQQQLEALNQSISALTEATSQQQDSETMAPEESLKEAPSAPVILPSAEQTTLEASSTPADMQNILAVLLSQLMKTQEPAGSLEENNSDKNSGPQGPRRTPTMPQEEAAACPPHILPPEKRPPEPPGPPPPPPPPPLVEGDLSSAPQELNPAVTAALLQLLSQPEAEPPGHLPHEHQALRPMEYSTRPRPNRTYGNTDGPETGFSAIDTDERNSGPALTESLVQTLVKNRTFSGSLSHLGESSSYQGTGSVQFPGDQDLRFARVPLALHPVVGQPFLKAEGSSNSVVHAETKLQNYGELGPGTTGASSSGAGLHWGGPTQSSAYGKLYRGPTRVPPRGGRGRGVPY
Chain of Human CDK12 wt/CycK (O75909 whole entry partner): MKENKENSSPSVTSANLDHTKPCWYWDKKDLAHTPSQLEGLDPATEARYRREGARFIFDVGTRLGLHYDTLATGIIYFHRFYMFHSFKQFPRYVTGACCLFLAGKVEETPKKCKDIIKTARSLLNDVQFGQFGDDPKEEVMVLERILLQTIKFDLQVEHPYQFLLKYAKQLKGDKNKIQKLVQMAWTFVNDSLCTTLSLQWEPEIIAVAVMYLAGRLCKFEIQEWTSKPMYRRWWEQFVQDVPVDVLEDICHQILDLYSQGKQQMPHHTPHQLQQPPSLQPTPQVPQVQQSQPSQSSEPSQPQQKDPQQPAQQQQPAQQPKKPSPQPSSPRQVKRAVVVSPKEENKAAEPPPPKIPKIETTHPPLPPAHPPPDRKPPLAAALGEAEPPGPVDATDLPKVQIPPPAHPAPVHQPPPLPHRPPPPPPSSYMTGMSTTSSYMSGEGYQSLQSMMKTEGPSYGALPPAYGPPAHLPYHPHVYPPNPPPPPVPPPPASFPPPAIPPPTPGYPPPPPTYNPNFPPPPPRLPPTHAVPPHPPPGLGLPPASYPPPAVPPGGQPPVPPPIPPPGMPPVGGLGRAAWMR
Method: (§1) A radiometric protein kinase assay (^33PanQinase® Activity Assay) was used for measuring the kinase activity of the two protein kinases (CDK12/CDK7). All kinase assays were performed in 96-well FlashPlates™ from PerkinElmer (Boston, MA, USA) in a 50 μL reaction volume.
(§2) The reaction cocktail was pipetted in four steps in the following order: • 20 μL of assay buffer (standard buffer) • 5 μL of ATP solution (in H2O) • 5 μL of test compound (in 10% DMSO) • 10 μL of substrate/10 μL of enzyme solution (premixed)
(§3) The reaction mixture was incubated at 30° C. for 60 min and then stopped by the addition of 2% (v/v) H3PO4. Plates were aspirated and washed two times with 200 μL 0.9% (w/v) NaCl. Incorporation of ^33Pi was determined with a microplate scintillation count (Microbeta, Wallac).
The fitting method used was a least-squares fit.

Human CDK7/CycH/MAT1 = Human CDK7/CycH/MAT1 (Homo sapiens (Human), UniProt P50613); test: Radiometric protein kinase assay (33PanQinase Activity Assay), CDK7; type: biochemical; details: ATP 3 μM
Chain of Human CDK7/CycH/MAT1 (P50613 whole entry): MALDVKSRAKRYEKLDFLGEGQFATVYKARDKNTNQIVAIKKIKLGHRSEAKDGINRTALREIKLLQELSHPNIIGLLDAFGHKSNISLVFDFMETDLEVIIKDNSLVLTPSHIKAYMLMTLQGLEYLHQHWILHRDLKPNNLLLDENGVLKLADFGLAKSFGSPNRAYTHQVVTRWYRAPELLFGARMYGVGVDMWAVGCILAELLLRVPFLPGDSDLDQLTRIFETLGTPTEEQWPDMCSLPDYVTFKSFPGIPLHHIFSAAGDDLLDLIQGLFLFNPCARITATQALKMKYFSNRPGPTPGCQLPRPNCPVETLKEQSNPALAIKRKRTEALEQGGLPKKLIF
Chain of Human CDK7/CycH/MAT1 (P51946 whole entry partner): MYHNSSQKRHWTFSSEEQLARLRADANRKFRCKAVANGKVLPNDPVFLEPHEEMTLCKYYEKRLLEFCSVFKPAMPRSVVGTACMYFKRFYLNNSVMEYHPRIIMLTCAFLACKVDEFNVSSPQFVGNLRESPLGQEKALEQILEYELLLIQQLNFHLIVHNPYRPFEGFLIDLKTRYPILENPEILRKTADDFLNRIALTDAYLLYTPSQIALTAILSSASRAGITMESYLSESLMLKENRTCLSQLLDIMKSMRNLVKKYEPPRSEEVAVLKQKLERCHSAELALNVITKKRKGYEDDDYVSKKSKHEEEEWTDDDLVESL
Chain of Human CDK7/CycH/MAT1 (P51948 whole entry partner): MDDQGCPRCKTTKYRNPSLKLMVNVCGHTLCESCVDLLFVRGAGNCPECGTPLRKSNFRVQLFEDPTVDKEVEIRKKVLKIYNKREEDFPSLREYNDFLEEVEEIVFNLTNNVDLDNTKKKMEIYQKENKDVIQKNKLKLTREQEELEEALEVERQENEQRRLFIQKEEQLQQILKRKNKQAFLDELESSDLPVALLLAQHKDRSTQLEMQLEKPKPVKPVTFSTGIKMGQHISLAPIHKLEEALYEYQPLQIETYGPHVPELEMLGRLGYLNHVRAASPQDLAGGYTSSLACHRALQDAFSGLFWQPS
Method: Additionally for the CDK7 assay: • Human CDK7/CycH/MAT1 (ProQinase, 0366-0360-4—Lot 2). • RBER-CHKtide (ProQinase, 0581-0000-5—Lot 106).
as §1, §2
For the CDK7 assay, a reaction mixture (50 μL) containing the following components was prepared: • 70 mM HEPES-NaOH (pH 7.5); • sodium orthovanadate (3 μM); • PEG-20000 (50 μg/mL); • DTT (1.2 mM); • MgCl2 (3 mM); • MnCl2 (3 mM); • purified human CDK7/CycH/MAT1 (3.3 nM—Lot 02); • RBER-CHKtide substrate (40 μg/mL—Lot 106); • ATP (3 μM); • [γ-33P]-ATP (approx. 8×10^5 cpm per well); and • test compound at the appropriate concentration such that the final concentration of DMSO was […].
as §3
The residual activities for each concentration and the compound IC50 values were calculated using Quattro Workflow V3.1.1 (Quattro Research GmbH, Munich, Germany). The fitting model for the IC50 determinations was “Sigmoidal response (variable slope)” with parameters “top” fixed at 100% and “bottom” at 0%. The fitting method used was a least-squares fit.

[1] = A673, read-out: Cellular Potency IC50 (nM) (in A673 cells)
[2] = A673 cells, 72 hours, read-out: A673 IC50
[3] = ATP 0.3 μM, read-out: CDK12 IC50
[4] = read-out: CKD12 Biochemical Potency IC50

Compound	IC50 (Human CDK12 wt/CycK; [3]) [nM]	CDK7/CDK12 (Human CDK12 wt/CycK)	IC50 (Human CDK12 wt/CycK; [4]) [nM]	IC50 (Human CDK7/CycH/MAT1) [nM]	Ratio of Biochemical Potency:Cellular Potency (A673 cells)	IC50 (A673 cells; [1]) [nM]	IC50 (A673 cells; [2]) [nM]
CC(C)c1cnn2c(NCc3ccc(-c4ccccn4)cc3)cc(NC[C@H]3CCNC[C@@H]3O)nc12 [PPA-001, (3R,4R)-4-(((3-isopropyl-7-((4-(pyridin-2-yl)benzyl)amino)pyrazolo[1,5-a]pyrimidin-5-yl)amino)methyl)piperidin-3-ol]	61	2.7	61	162	21.79	2.8	2.8
CC(C)c1cnn2c(NCc3ccc(-c4ccncc4)cc3)cc(NC[C@H]3CCNC[C@@H]3O)nc12 [PPA-002, (3R,4R)-4-(((3-isopropyl-7-((4-(pyridin-4-yl)benzyl)amino)pyrazolo[1,5-a]pyrimidin-5-yl)amino)methyl)piperidin-3-ol]	34	2.3	34	79	0.27	127	127
CC(C)c1cnn2c(NCc3ccc(-c4cccnc4)cc3)cc(NC[C@H]3CCNC[C@@H]3O)nc12 [PPA-003, (3R,4R)-4-(((3-isopropyl-7-((4-(pyridin-3-yl)benzyl)amino)pyrazolo[1,5-a]pyrimidin-5-yl)amino)methyl)piperidin-3-ol]	47	1.6	47	76	2.90	16.2	16.2
CS(=O)(=O)N1CCC(CNc2cc(NCc3ccc(-c4ccccn4)cc3)n3ncc(C4CC4)c3n2)CC1 [PPA-056]	–	–	–	–	–	> 100	> 100
CC1(CNc2cc(NCc3ccc(-c4ccccn4)cc3)n3ncc(C4CC4)c3n2)CCNCC1 [PPA-063]	–	–	–	–	–	5.9	5.9

Continued, in another order:

IC50 (Human CDK12 wt/CycK; [3]) [nM]	CDK7/CDK12 (Human CDK12 wt/CycK)	IC50 (Human CDK12 wt/CycK; [4]) [nM]	IC50 (Human CDK7/CycH/MAT1) [nM]	Compound	Ratio of Biochemical Potency:Cellular Potency (A673 cells)	IC50 (A673 cells; [1]) [nM]	IC50 (A673 cells; [2]) [nM]
51	2.2	51	112	CC(C)c1cnn2c(NCc3ccc(-c4ncccn4)cc3)cc(NC[C@H]3CCNC[C@@H]3O)nc12 [PPA-007]	30.00	1.7	1.7
52	3.0	52	154	CC(C)c1cnn2c(NCc3ccc(-c4ccncn4)cc3)cc(NC[C@H]3CCNC[C@@H]3O)nc12 [PPA-008]	1.63	32	32
36	9.4	36	340	N#Cc1cnn2c(NCc3ccc(-c4ccccn4)cc3)cc(NC[C@H]3CCNC[C@@H]3O)nc12 [PPA-010]	4.50	8	8
160	1.0	160	153	Cc1cc(CNc2cc(NC[C@H]3CCNC[C@@H]3O)nc3c(C(C)C)cnn23)ccc1-c1ccccn1 [PPA-011]	2.32	69	69
188	0.9	188	165	Cc1cccnc1-c1ccc(CNc2cc(NC[C@H]3CCNC[C@@H]3O)nc3c(C(C)C)cnn23)cc1 [PPA-012]	13.33	14.1	14.1
89	1.3	89	114	COc1cccnc1-c1ccc(CNc2cc(NC[C@H]3CCNC[C@@H]3O)nc3c(C(C)C)cnn23)cc1 [PPA-013]	40.45	2.2	2.2
74	1.0	74	72	CC(C)c1cnn2c(NCc3ccc(-c4ncccc4F)cc3)cc(NC[C@H]3CCNC[C@@H]3O)nc12 [PPA-014]	11.56	6.4	6.4
